Read-outs that look alike come from different tables or passages of the source.
How the values were obtained:
[1] = target: T1, V600E full-length B-Raf (Homo sapiens, UniProt P15056, V600E); assay: B-Raf IC50 assay (Example A); format: biochemical
T1 construct: 1 μM FSBA-MEK and 20 nM V600E full-length B-Raf; made in house; host or cells: Sf9 insect cells (baculovirus)
Summary of the method: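 Sf9-expressed full-length V600E B-Raf (20 nM) phosphorylated 1 µM FSBA-modified wild-type MEK with 4 µM ATP plus [γ-33P]ATP in 25 mM Pipes pH 7.2, 100 mM KCl, 10 mM MgCl2. Enzyme and substrate were preincubated 15 min, and the reaction ran 60 min at 22 °C. It was TCA-quenched and filter-captured, and incorporated radioactivity was scintillation-counted.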

[2] = test system: basal ERK1/2 phosphorylation in Malme-3M cells; assay: Cellular ERK 1/2 phosphorylation assay (Example A1); format: cell-based; settings: Homo sapiens, 1 hour incubation, pERK normalized to total ERK, read-out: P-ERK Malme3-M IC50
Summary of the method: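 Malme-3M cells (24,000/well, RPMI-1640 with 10% FBS) were treated with compounds for 1 h at 37 °C, 1% DMSO final. Fixed, methanol-permeabilized cells were immunostained for pERK and total ERK and read by infrared fluorescence. pERK signal was normalized to total ERK.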

[3] = test system: subcutaneous LOX xenografts; assay: Tumor growth inhibition (LOX), Example A2; format: in vivo; settings: female nude mice, LOX xenograft; for Tumor Volume (mm^3) Day 1: 10 mg/kg PO on days 1-4, Day 1; for Tumor Volume (mm^3) Day 3: 10 mg/kg PO on days 1-4, Day 3; for Tumor Volume (mm^3) Day 5: 10 mg/kg PO on days 1-4, Day 5
Experimental: (§1) Female nude mice were implanted subcutaneously on the right flank with approximately 3.5×10^6 LOX cells in 100 μL PBS. Five to seven days later, tumors were measured and mice were randomized into groups of six with average tumor volume in each group of approximately 200 mm^3. Examples 3 and 28 were dissolved in 80% PEG400/20% ethanol before dosing, and administered PO at a volume of 5 mL/kg. Dosing was vehicle alone on days 1, 2, 3 and 4; and Examples 3 and 28 at 10 mg/kg on days 1, 2, 3 and 4. Animal weights and tumor volumes were measured using electronic calipers on day 5. Tumor volume was calculated using the formula: volume=(width2×length)/2.

[4] = test system: subcutaneous LOX xenografts; assay: Tumor growth inhibition (LOX), Example A3; format: in vivo; settings: female nude mice, LOX xenograft
Experimental: as §1, with “mm^3. Example 23 was” for “mm^3. Examples 3 and 28 were”, “and Example 23” for “and Examples 3 and 28”, “at 5” for “at 10”, “formula: volume=(width^2×length)/2.” for “formula: volume=(width2×length)/2.”

[5] = B-Raf V600E assay of Example A, read-out: IC50
[6] = [γ-33P]ATP incorporation into FSBA-MEK, 4 μM ATP, read-out: BRAF V600E IC50

T1 sequence (P15056 whole entry V600E): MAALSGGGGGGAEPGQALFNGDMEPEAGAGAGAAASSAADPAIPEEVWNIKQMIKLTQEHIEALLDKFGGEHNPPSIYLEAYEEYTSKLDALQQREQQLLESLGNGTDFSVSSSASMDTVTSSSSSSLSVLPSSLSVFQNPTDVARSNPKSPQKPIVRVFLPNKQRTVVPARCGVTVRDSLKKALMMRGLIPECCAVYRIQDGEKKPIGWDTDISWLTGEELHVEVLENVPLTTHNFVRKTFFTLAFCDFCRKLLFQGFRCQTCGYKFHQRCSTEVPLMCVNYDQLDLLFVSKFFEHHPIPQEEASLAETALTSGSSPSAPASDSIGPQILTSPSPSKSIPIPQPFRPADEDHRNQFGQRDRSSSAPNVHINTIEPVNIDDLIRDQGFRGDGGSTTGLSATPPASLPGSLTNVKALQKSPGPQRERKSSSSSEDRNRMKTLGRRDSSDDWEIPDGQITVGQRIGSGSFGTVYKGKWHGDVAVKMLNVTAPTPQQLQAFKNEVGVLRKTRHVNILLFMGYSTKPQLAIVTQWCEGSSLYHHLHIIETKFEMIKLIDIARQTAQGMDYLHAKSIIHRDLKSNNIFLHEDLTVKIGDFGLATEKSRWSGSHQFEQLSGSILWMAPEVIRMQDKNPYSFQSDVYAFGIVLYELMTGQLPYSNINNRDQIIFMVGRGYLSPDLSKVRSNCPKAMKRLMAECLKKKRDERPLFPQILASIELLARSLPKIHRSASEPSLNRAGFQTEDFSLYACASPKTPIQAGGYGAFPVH

Row | IC50 [1, 5] | IC50 [1, 6] | SMILES | IC50 ([1]; BRAF V600E IC50 (μM), [γ-33P]ATP incorporation into FSBA-MEK, 4 μM ATP) | IC50 [2] | Tumor Volume (mm^3) Day 1 [3] | Tumor Volume (mm^3) Day 3 [3] | Tumor Volume (mm^3) Day 5 [3] | Tumor Volume (mm^3) Day 1 ([4]; 5 mg/kg PO on days 1-4, Day 1) | Tumor Volume (mm^3) Day 3 ([4]; 5 mg/kg PO on days 1-4, Day 3) | Tumor Volume (mm^3) Day 5 ([4]; 5 mg/kg PO on days 1-4, Day 5)
1 | < 0.1 µM | 0.00028 µM | Nc1ncnc2c(C(=O)Nc3c(F)ccc(NS(=O)(=O)CCCF)c3F)cccc12 [Example 23, 4-Amino-quinazoline-8-carboxylic acid [2,6-difluoro-3-(3-fluoro-propane-1-sulfonylamino)-phenyl]-amide] |  | 3.89 nM |  |  |  | 221.32 mm^3 | 280.81 mm^3 | 157.52 mm^3
2 | < 0.1 µM | 0.00011 µM | CCCS(=O)(=O)Nc1ccc(F)c(NC(=O)c2cccc3c(N)ncnc23)c1C#N [Example 28, 4-Amino-quinazoline-8-carboxylic acid [2-cyano-6-fluoro-3-(propane-1-sulfonylamino)-phenyl]-amide] |  | 14.4 nM | 190.71 mm^3 | 176.38 mm^3 | 219.31 mm^3 |  |  | 

Row | SMILES | IC50 [1, 5] | IC50 [1, 6] | IC50 ([1]; BRAF V600E IC50 (μM), [γ-33P]ATP incorporation into FSBA-MEK, 4 μM ATP) | IC50 [2] | Tumor Volume (mm^3) Day 1 [3] | Tumor Volume (mm^3) Day 3 [3] | Tumor Volume (mm^3) Day 5 [3] | Tumor Volume (mm^3) Day 1 ([4]; 5 mg/kg PO on days 1-4, Day 1) | Tumor Volume (mm^3) Day 3 ([4]; 5 mg/kg PO on days 1-4, Day 3) | Tumor Volume (mm^3) Day 5 ([4]; 5 mg/kg PO on days 1-4, Day 5)
3 | CCCS(=O)(=O)Nc1ccc(F)c(NC(=O)c2cccc3c(N)ncnc23)c1Cl [Example 3, 4-Amino-quinazoline-8-carboxylic acid [2-chloro-6-fluoro-3-(propane-1-sulfonylamino)-phenyl]-amide] | < 0.1 µM |  | 0.00053 µM | 7.23 nM | 190.33 mm^3 | 151.33 mm^3 | 118.41 mm^3 |  |  | 
